What was measured:
[1] = target: T1, Retinal rod rhodopsin-sensitive cGMP 3',5'-cyclic phosphodiesterase subunit delta (Homo sapiens, UniProt O43924); assay: Binding affinity to His6-tagged PDE-delta (unknown origin) measured every 3 mins by fluorescence polarization assay
[2] = target: T1, Retinal rod rhodopsin-sensitive cGMP 3',5'-cyclic phosphodiesterase subunit delta
Description: Binding affinity to PDE-delta (unknown origin) assessed as shift in melting temperature

T1 sequence (O43924 whole entry): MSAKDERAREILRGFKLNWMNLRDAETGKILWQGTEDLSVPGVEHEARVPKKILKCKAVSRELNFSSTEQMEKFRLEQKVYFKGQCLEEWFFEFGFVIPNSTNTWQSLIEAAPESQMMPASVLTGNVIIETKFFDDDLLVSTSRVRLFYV

Kd [1] [nM] | ΔTm [2] [°C] | Structure (SMILES)
> 1000 | – | C=CC(=O)N1CCC(c2nc3ccccc3n2Cc2ccccc2)CC1
1250 | – | CC(C)c1nc(N(C)S(C)(=O)=O)nc(-c2ccc(F)cc2)c1/C=C/[C@@H](O)C[C@@H](O)CC(=O)O [ROSUVASTATIN]
> 2000 | 7.2 | CC(C)(C)OC(=O)N1CCC(C(COc2ccc(-c3nc4ccccc4n3Cc3ccccc3)cc2)n2c(-c3ccccc3)nc3ccccc32)CC1 (stereo not given)
– | 20.5 | c1ccc(Cn2c(-c3ccc(OCC(C4CCNCC4)n4c(-c5ccccc5)nc5ccccc54)cc3)nc3ccccc32)cc1 (stereo not given)
